The target in the experiment is MDM2 (Homo sapiens, UniProt Q00987). In words: MDM2 binding screen: displacement of fluorescent p53 peptide probe FP53 (fluorescence polarization). Conditions: crude macrocycle reactions; for fraction fluorescent probe displaced, Screen: initial screen. In outline:
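Macrocycle reaction products at a final 10 µM were tested for displacement of a p53-based fluorescent peptide from human MDM2. Fluorescence anisotropy (ex 485/em 535 nm) was read once per macrocycle at 25 °C.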
(Polarisation of emitted light reports the rotation of a fluorescent probe.)

SMILES strings stand for the structures. Numbered stars: 1 amine (or outer) side, 2 acyl side, 3 side chain; on linkers, the order of the positions; unused ones are H or OH. Bridge positions count the residues as written; N and C are the ends. Square brackets hold non-standard residues; d marks the D form. Peptide text beside a SMILES is read from it. * marks the point of attachment. ξ: configuration not given here. ξPro(4-NHCO(5-Cl-2-thienyl)) = O=C(NC1CNC(C(=O)O)C1)c1ccc(Cl)s1; ξPro(4ξ-NHCOC6H4-4-Cl) = O=C(NC1CNC(C(=O)O)C1)c1ccc(Cl)cc1; 2Thenoyl(5-Cl) = O=C(c1ccc(Cl)s1)*; Benzoyl(4-Cl) = O=C(c1ccc(Cl)cc1)*; Cysteamide = C(CS[*:3])N[*:1]; X1 = O=C(/C=C/c1ccccc1)*; Api = NC1(C(=O)O)CCNCC1; Dap = NC[C@H](N)C(=O)O; X2 = O=C(C=Cc1ccccc1)*; Mpa = O=C(O)CCS

Chain of MDM2 (Q00987 whole entry): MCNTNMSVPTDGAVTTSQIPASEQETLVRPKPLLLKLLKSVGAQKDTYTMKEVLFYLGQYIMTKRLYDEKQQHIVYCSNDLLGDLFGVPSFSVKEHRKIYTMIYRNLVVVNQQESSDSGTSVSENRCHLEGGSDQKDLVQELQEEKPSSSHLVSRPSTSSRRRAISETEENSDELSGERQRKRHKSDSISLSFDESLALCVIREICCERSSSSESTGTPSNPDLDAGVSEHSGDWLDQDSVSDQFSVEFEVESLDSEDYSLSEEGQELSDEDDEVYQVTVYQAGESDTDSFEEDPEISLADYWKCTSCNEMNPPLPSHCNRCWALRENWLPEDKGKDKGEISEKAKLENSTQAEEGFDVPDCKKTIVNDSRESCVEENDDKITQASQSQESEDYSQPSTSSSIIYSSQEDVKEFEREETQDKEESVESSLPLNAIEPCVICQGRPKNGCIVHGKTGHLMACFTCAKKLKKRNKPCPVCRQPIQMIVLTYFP

Consider `O=C1CCSSCCNC(=O)C2CCCN(C2)C(=O)C2CC(NC(=O)c3ccc(Cl)s3)CN2C(=O)C(Cc2ccccc2)N1` (stereo not drawn) [X F D5 B4 Acid 14], for which, for the setting “Acid 14”, the “fraction fluorescent probe displaced, Screen” value was -0.00483 and the “fraction fluorescent probe displaced, Replicate” value stood at 0.0211.

For the molecule `O=C1CCSSCCNC(=O)c2cccc(c2)CNC(=O)C2CC(NC(=O)c3ccc(Cl)s3)CN2C(=O)C(Cc2ccccc2)N1` (stereo not drawn) [X F D5 B5 Acid 14], under “Acid 14”, the “fraction fluorescent probe displaced, Screen” value is listed as -0.00483 and the “fraction fluorescent probe displaced, Replicate” value is -0.00432.

On to `O=C(C=Cc1ccccc1)NC1CC2C(=O)NCc3cccc(c3)C(=O)NCCSSCCC(=O)NC(Cc3ccccc3)C(=O)N2C1` (stereo not drawn) [X F D5 B5 Acid 91], for which, for the setting “Acid 91”, the “fraction fluorescent probe displaced, Screen” value was -0.05 and the “fraction fluorescent probe displaced, Replicate” value is on record as -0.0333.

On to `O=C1CCSSCCNC(=O)[C@@H]2CCCN2C(=O)C2(CCN(C(=O)c3ccc(Cl)cc3)CC2)NC(=O)[C@H](Cc2ccccc2)N1` [X F D6 B1 Acid 25] ([Mpa]F[Api](Benzoyl(4-Cl))P-Cysteamide; disulfide 1-C), for which, for the setting “Acid 25”, the “fraction fluorescent probe displaced, Screen” value was determined as 0.0244 and the “fraction fluorescent probe displaced, Replicate” value is 0.17.

Consider `O=C1CCSSCCNC(=O)C2CCCN2C(=O)C2(CCN(C(=O)C=Cc3ccccc3)CC2)NC(=O)C(Cc2ccccc2)N1` (stereo not drawn) [X F D6 B1 Acid 91] ([Mpa]F[Api](X2)P-Cysteamide; disulfide 1-C; configuration not given here), for which, under “Acid 91”, the “fraction fluorescent probe displaced, Screen” value was -0.08 and the “fraction fluorescent probe displaced, Replicate” value was 0.04.

As for `O=C1CCNC(=O)C2(CCN(C(=O)c3ccc(Cl)s3)CC2)NC(=O)[C@H](Cc2ccccc2)NC(=O)CCSSCCN1` [X F D6 B2 Acid 14], where the note is “Acid 14”, the “fraction fluorescent probe displaced, Screen” value is listed as -0.00483 and the “fraction fluorescent probe displaced, Replicate” value is recorded as 0.0465.

`O=C1CCNC(=O)C2(CCN(C(=O)/C=C/c3ccccc3)CC2)NC(=O)[C@H](Cc2ccccc2)NC(=O)CCSSCCN1` [X F D6 B2 Acid 91]: for the setting “Acid 91”, the “fraction fluorescent probe displaced, Screen” value came out at 0.03 and the “fraction fluorescent probe displaced, Replicate” value was -0.00827.

As for `O=C1CCSSCCNC(=O)[C@H]2CCCN(C2)C(=O)C2(CCN(C(=O)c3ccc(Cl)s3)CC2)NC(=O)[C@H](Cc2ccccc2)N1` [X F D6 B4 Acid 14], for the setting “Acid 14”, the “fraction fluorescent probe displaced, Screen” value was 0.053 and the “fraction fluorescent probe displaced, Replicate” value was found to be 0.10.

For the molecule `O=C1CCSSCCNC(=O)[C@H]2CCCN(C2)C(=O)C2(CCN(C(=O)c3ccc(Cl)cc3)CC2)NC(=O)[C@H](Cc2ccccc2)N1` [X F D6 B4 Acid 25], for the setting “Acid 25”, the “fraction fluorescent probe displaced, Screen” value was -0.00813 and the “fraction fluorescent probe displaced, Replicate” value was 0.07.

Take `O=C1CCSSCCNC(=O)c2cccc(c2)CNC(=O)C2(CCN(C(=O)c3ccc(Cl)s3)CC2)NC(=O)[C@H](Cc2ccccc2)N1` [X F D6 B5 Acid 14]: for the setting “Acid 14”, the “fraction fluorescent probe displaced, Screen” value is 0.053 and the “fraction fluorescent probe displaced, Replicate” value is 0.0211.

With `O=C1CCSSCCNC(=O)c2cccc(c2)CNC(=O)C2(CCN(C(=O)c3ccc(Cl)cc3)CC2)NC(=O)C(Cc2ccccc2)N1` (stereo not drawn) [X F D6 B5 Acid 25], under “Acid 25”, the “fraction fluorescent probe displaced, Screen” value is reported as -0.00813 and the “fraction fluorescent probe displaced, Replicate” value was 0.12.

For the molecule `O=C1CCSSCCNC(=O)c2cccc(c2)CNC(=O)C2(CCN(C(=O)/C=C/c3ccccc3)CC2)NC(=O)[C@H](Cc2ccccc2)N1` [X F D6 B5 Acid 91], under “Acid 91”, the “fraction fluorescent probe displaced, Screen” value is recorded as -0.0241 and the “fraction fluorescent probe displaced, Replicate” value was -0.0333.

On to `O=C1CCNC(=O)C2CN(C(=O)c3ccc(Cl)cc3)CCN2C(=O)C(Cc2ccccc2)NC(=O)CCSSCCN1` (stereo not drawn) [X F D7 B2 Acid 25], for which, for the setting “Acid 25”, the “fraction fluorescent probe displaced, Screen” value was -0.07 and the “fraction fluorescent probe displaced, Replicate” value worked out at 0.10.

Turning to `O=C1CCSSCCNC(=O)C2CCCN(C2)C(=O)C2CN(C(=O)c3ccc(Cl)s3)CCN2C(=O)C(Cc2ccccc2)N1` (stereo not drawn) [X F D7 B4 Acid 14], where the note is “Acid 14”, the “fraction fluorescent probe displaced, Screen” value is given as -0.00483 and the “fraction fluorescent probe displaced, Replicate” value stood at 0.12.

In the case of `O=C1CCSSCCNC(=O)[C@H](CNC(=O)c2ccc(Cl)s2)NC(=O)[C@@H]2CCCN2C(=O)[C@H](Cc2c[nH]c3ccccc23)N1` [X W B1 D3 Acid 14] ([Mpa]WP[Dap](2Thenoyl(5-Cl))-Cysteamide; disulfide 1-C), for the setting “Acid 14”, the “fraction fluorescent probe displaced, Screen” value worked out at 0.14 and the “fraction fluorescent probe displaced, Replicate” value is reported as 0.22.

Take `O=C1CCSSCCNC(=O)[C@H](CNC(=O)c2ccc(Cl)cc2)NC(=O)[C@@H]2CCCN2C(=O)[C@H](Cc2c[nH]c3ccccc23)N1` [X W B1 D3 Acid 25] ([Mpa]WP[Dap](Benzoyl(4-Cl))-Cysteamide; disulfide 1-C): for the setting “Acid 25”, the “fraction fluorescent probe displaced, Screen” value worked out at 0.28 and the “fraction fluorescent probe displaced, Replicate” value was determined as 0.17.

Take `O=C(/C=C/c1ccccc1)NC[C@@H]1NC(=O)[C@@H]2CCCN2C(=O)[C@H](Cc2c[nH]c3ccccc23)NC(=O)CCSSCCNC1=O` [X W B1 D3 Acid 91] ([Mpa]WP[Dap](X1)-Cysteamide; disulfide 1-C): under “Acid 91”, the “fraction fluorescent probe displaced, Screen” value is 0.19 and the “fraction fluorescent probe displaced, Replicate” value was 0.12.

Turning to `O=C1CCSSCCNC(=O)C2CC(NC(=O)c3ccc(Cl)s3)CN2C(=O)C2CCCN2C(=O)C(Cc2c[nH]c3ccccc23)N1` (stereo not drawn) [X W B1 D5 Acid 14] ([Mpa]WP[ξPro(4-NHCO(5-Cl-2-thienyl))]-Cysteamide; disulfide 1-C; configuration not given here), for the setting “Acid 14”, the “fraction fluorescent probe displaced, Screen” value was found to be 0.0241 and the “fraction fluorescent probe displaced, Replicate” value is given as 0.17.

As for `O=C1CCSSCCNC(=O)C2CC(NC(=O)c3ccc(Cl)cc3)CN2C(=O)C2CCCN2C(=O)C(Cc2c[nH]c3ccccc23)N1` (stereo not drawn) [X W B1 D5 Acid 25] ([Mpa]WP[ξPro(4ξ-NHCOC6H4-4-Cl)]-Cysteamide; disulfide 1-C; configuration not given here), under “Acid 25”, the “fraction fluorescent probe displaced, Screen” value came to 0.15 and the “fraction fluorescent probe displaced, Replicate” value was 0.17.

Regarding `O=C1CCSSCCNC(=O)C2(CCN(C(=O)c3ccc(Cl)s3)CC2)NC(=O)[C@@H]2CCCN2C(=O)[C@H](Cc2c[nH]c3ccccc23)N1` [X W B1 D6 Acid 14] ([Mpa]WP[Api](2Thenoyl(5-Cl))-Cysteamide; disulfide 1-C), for the setting “Acid 14”, the “fraction fluorescent probe displaced, Screen” value amounted to 0.08 and the “fraction fluorescent probe displaced, Replicate” value was -0.00432.

On to `O=C1CCSSCCNC(=O)C2(CCN(C(=O)c3ccc(Cl)cc3)CC2)NC(=O)C2CCCN2C(=O)C(Cc2c[nH]c3ccccc23)N1` (stereo not drawn) [X W B1 D6 Acid 25] ([Mpa]WP[Api](Benzoyl(4-Cl))-Cysteamide; disulfide 1-C; configuration not given here), for which, for the setting “Acid 25”, the “fraction fluorescent probe displaced, Screen” value came to 0.19 and the “fraction fluorescent probe displaced, Replicate” value is given as 0.07.

For `O=C1CCSSCCNC(=O)C2CN(C(=O)c3ccc(Cl)cc3)CCN2C(=O)C2CCCN2C(=O)C(Cc2c[nH]c3ccccc23)N1` (stereo not drawn) [X W B1 D7 Acid 25], under “Acid 25”, the “fraction fluorescent probe displaced, Screen” value worked out at 0.19 and the “fraction fluorescent probe displaced, Replicate” value is recorded as 0.17.

Consider `O=C1CCNC(=O)[C@H](Cc2c[nH]c3ccccc23)NC(=O)CCSSCCNC(=O)[C@H](CNC(=O)c2ccc(Cl)s2)N1` [X W B2 D3 Acid 14], for which, under “Acid 14”, the “fraction fluorescent probe displaced, Screen” value turned out to be 0.23 and the “fraction fluorescent probe displaced, Replicate” value is on record as 0.35.

For the molecule `O=C1CCNC(=O)[C@H](Cc2c[nH]c3ccccc23)NC(=O)CCSSCCNC(=O)[C@H](CNC(=O)c2ccc(Cl)cc2)N1` [X W B2 D3 Acid 25], under “Acid 25”, the “fraction fluorescent probe displaced, Screen” value came to 0.28 and the “fraction fluorescent probe displaced, Replicate” value was determined as 0.22.

`O=C(/C=C/c1ccccc1)NC[C@@H]1NC(=O)CCNC(=O)[C@H](Cc2c[nH]c3ccccc23)NC(=O)CCSSCCNC1=O` [X W B2 D3 Acid 91]: under “Acid 91”, the “fraction fluorescent probe displaced, Screen” value is given as 0.08 and the “fraction fluorescent probe displaced, Replicate” value came to 0.09.

On to `O=C1CCSSCCNC(=O)C2(CCN(C(=O)c3ccc(Cl)s3)CC2)NC(=O)CCNC(=O)[C@H](Cc2c[nH]c3ccccc23)N1` [X W B2 D6 Acid 14], for which, under “Acid 14”, the “fraction fluorescent probe displaced, Screen” value was found to be 0.20 and the “fraction fluorescent probe displaced, Replicate” value is listed as -0.00432.

Consider `O=C1CCSSCCNC(=O)C2(CCN(C(=O)c3ccc(Cl)cc3)CC2)NC(=O)CCNC(=O)[C@H](Cc2c[nH]c3ccccc23)N1` [X W B2 D6 Acid 25], for which, where the note is “Acid 25”, the “fraction fluorescent probe displaced, Screen” value came out at 0.09 and the “fraction fluorescent probe displaced, Replicate” value was found to be 0.0465.

For `O=C1CCSSCCNC(=O)C2(CCN(C(=O)/C=C/c3ccccc3)CC2)NC(=O)CCNC(=O)[C@H](Cc2c[nH]c3ccccc23)N1` [X W B2 D6 Acid 91], for the setting “Acid 91”, the “fraction fluorescent probe displaced, Screen” value is 0.22 and the “fraction fluorescent probe displaced, Replicate” value was found to be 0.09.

As for `O=C1CCSSCCNC(=O)[C@H](CNC(=O)c2ccc(Cl)cc2)NC(=O)[C@H]2CCCN(C2)C(=O)[C@H](Cc2c[nH]c3ccccc23)N1` [X W B4 D3 Acid 25], for the setting “Acid 25”, the “fraction fluorescent probe displaced, Screen” value came out at 0.25 and the “fraction fluorescent probe displaced, Replicate” value is on record as 0.30.

As for `O=C1CCSSCCNC(=O)C2CC(NC(=O)c3ccc(Cl)s3)CN2C(=O)C2CCCN(C2)C(=O)C(Cc2c[nH]c3ccccc23)N1` (stereo not drawn) [X W B4 D5 Acid 14], under “Acid 14”, the “fraction fluorescent probe displaced, Screen” value is recorded as 0.23 and the “fraction fluorescent probe displaced, Replicate” value came out at 0.35.

For `O=C(C=Cc1ccccc1)NC1CC2C(=O)NCCSSCCC(=O)NC(Cc3c[nH]c4ccccc34)C(=O)N3CCCC(C3)C(=O)N2C1` (stereo not drawn) [X W B4 D5 Acid 91], for the setting “Acid 91”, the “fraction fluorescent probe displaced, Screen” value is 0.30 and the “fraction fluorescent probe displaced, Replicate” value was found to be 0.22.

As for `O=C1CCSSCCNC(=O)C2(CCN(C(=O)c3ccc(Cl)s3)CC2)NC(=O)[C@H]2CCCN(C2)C(=O)[C@H](Cc2c[nH]c3ccccc23)N1` [X W B4 D6 Acid 14], where the note is “Acid 14”, the “fraction fluorescent probe displaced, Screen” value turned out to be 0.17 and the “fraction fluorescent probe displaced, Replicate” value stood at 0.33.

As to `O=C1CCSSCCNC(=O)C2(CCN(C(=O)c3ccc(Cl)cc3)CC2)NC(=O)[C@H]2CCCN(C2)C(=O)[C@H](Cc2c[nH]c3ccccc23)N1` [X W B4 D6 Acid 25], for the setting “Acid 25”, the “fraction fluorescent probe displaced, Screen” value was 0.25 and the “fraction fluorescent probe displaced, Replicate” value was 0.12.

These data come from PMC9250534, “Synthesis and direct assay of large macrocycle diversities by combinatorial late-stage modification at picomole scale” (Nature Communications, 2022).
